Laboratory results: the supplement of paper PMC10307832

Tests used:
Experiment in all cases: relative viability (nuclei count vs DMSO), 5 days (fraction); higher = more cells survive
Daporinad + AZD7762 = compound: O=C(/C=C/c1cccnc1)NCCCCC1CCN(C(=O)c2ccccc2)CC1 [Daporinad] + NC(=O)Nc1cc(-c2cccc(F)c2)sc1C(=O)N[C@H]1CCCNC1 [AZD7762] (partner 0.2 µM)
How it was run: (§1)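 A single step with final 0.05% Triton X-100, 1% formaldehyde and 1 ug/ml Hoechst fixed the cells and stained nuclei 5 days after treatment. Lung cancer cell lines in 1536-well plates had been treated by pin tool the day after seeding with one drug alone or a fixed anchor-drug dose plus five library-drug doses (not always all listed) in √10 steps, and nuclei were counted on 4× images. Relative viability is the ratio of nuclei in treated wells to nuclei in vehicle wells, taken as the median of duplicate plates.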

R406 + Bortezomib = compound: COc1cc(Nc2ncc(F)c(Nc3ccc4c(n3)NC(=O)C(C)(C)O4)n2)cc(OC)c1OC [R406] + CC(C)C[C@H](NC(=O)[C@H](Cc1ccccc1)NC(=O)c1cnccn1)B(O)O [Bortezomib] (partner 0.002 µM)
How it was run: as §1

R406 + Crizotinib = compound: COc1cc(Nc2ncc(F)c(Nc3ccc4c(n3)NC(=O)C(C)(C)O4)n2)cc(OC)c1OC [R406] + C[C@@H](Oc1cc(-c2cnn(C3CCNCC3)c2)cnc1N)c1c(Cl)ccc(F)c1Cl [Crizotinib] (partner 1 µM)
How it was run: as §1

Daporinad + Bortezomib = compound: O=C(/C=C/c1cccnc1)NCCCCC1CCN(C(=O)c2ccccc2)CC1 [Daporinad] + CC(C)C[C@H](NC(=O)[C@H](Cc1ccccc1)NC(=O)c1cnccn1)B(O)O [Bortezomib] (partner 0.002 µM)
How it was run: as §1

Row | Cell Line | relative viability (Daporinad + AZD7762; first compound 0.0005 µM) | relative viability (Daporinad + AZD7762; first compound 0.001581 µM) | relative viability (Daporinad + AZD7762; first compound 0.005 µM) | relative viability (Daporinad + AZD7762; first compound 0.01581 µM) | relative viability (R406 + Bortezomib; first compound 0.08 µM) | relative viability (R406 + Bortezomib; first compound 0.253 µM) | relative viability (R406 + Bortezomib; first compound 0.8 µM) | relative viability (R406 + Bortezomib; first compound 2.53 µM) | relative viability (R406 + Bortezomib; first compound 8 µM) | relative viability (R406 + Crizotinib; first compound 0.08 µM) | relative viability (R406 + Crizotinib; first compound 0.253 µM) | relative viability (R406 + Crizotinib; first compound 0.8 µM) | relative viability (R406 + Crizotinib; first compound 2.53 µM) | relative viability (R406 + Crizotinib; first compound 8 µM) | relative viability (Daporinad + Bortezomib; first compound 0.0005 µM) | relative viability (Daporinad + Bortezomib; first compound 0.001581 µM) | relative viability (Daporinad + Bortezomib; first compound 0.005 µM) | relative viability (Daporinad + Bortezomib; first compound 0.01581 µM)
1 | NCI-H1395 | 0.386 | 0.391 | 0.441 | 0.384 |  |  |  |  |  |  |  |  |  |  |  |  |  | 
2 | NCI-H1563 |  |  |  |  | 0.764 | 1 | 0.873 | 0.523 | 0.574 | 0.791 | 0.868 | 0.891 | 0.913 | 0.619 | 0.917 | 0.958 | 0.838 | 0.691
3 | NCI-H1648 | 0.649 | 0.577 | 0.674 | 0.653 |  |  |  |  |  |  |  |  |  |  |  |  |  | 
4 | NCI-H1650 |  |  |  |  | 0.244 | 0.214 | 0.18 | 0.208 | 0.197 | 1.05 | 1.09 | 0.961 | 0.327 | 0.139 | 0.182 | 0.222 | 0.219 | 0.187
5 | NCI-H1793 | 0.467 | 0.511 | 0.522 | 0.764 |  |  |  |  |  |  |  |  |  |  |  |  |  | 
6 | NCI-H1944 | 0.474 | 0.453 | 0.6 | 0.579 |  |  |  |  |  | 1.1 | 1.24 | 1.04 | 0.875 | 0.737 |  |  |  | 
7 | NCI-H2009 |  |  |  |  | 0.983 | 1.11 | 1.24 | 0.427 | 0.27 | 1.07 | 1.02 | 1.13 | 0.815 | 0.301 | 0.887 | 1.09 | 1.06 | 0.846
8 | NCI-H2023 |  |  |  |  | 0.914 | 1.04 | 1.08 | 0.0862 | 0.29 | 0.705 | 0.855 | 0.681 | 0.254 | 0.145 | 1.01 | 1.1 | 1.04 | 0.972
9 | NCI-H2170 | 0.807 | 0.974 | 0.979 | 0.92 |  |  |  |  |  | 1.16 | 1.25 | 1.15 | 0.815 | 0.495 |  |  |  | 
10 | NCI-H2228 |  |  |  |  | 1.05 | 1.15 | 1.32 | 0.118 | 0.304 | 0.572 | 0.435 | 0.528 | 0.164 | 0.101 | 0.788 | 1.2 | 1.12 | 1.11
11 | NCI-H2342 | 0.508 | 0.457 | 0.612 | 0.532 |  |  |  |  |  |  |  |  |  |  |  |  |  | 
12 | SK-LU-1 |  |  |  |  | 1.16 | 1.32 | 1.09 | 0.384 | 0.544 | 0.997 | 1.07 | 1.15 | 0.424 | 0.155 | 0.921 | 1.34 | 1.16 | 1.61
13 | SK-MES-1 |  |  |  |  |  |  |  |  |  | 0.992 | 1.04 | 0.959 | 0.73 | 0.43 |  |  |  | 
14 | SW 900 | 0.647 |  | 0.72 | 0.654 |  |  |  |  |  |  |  |  |  |  |  |  |  | 
15 | SW 1573 |  |  |  |  | 0.994 | 1.23 | 1.35 | 0.768 | 0.569 | 0.747 | 1 | 0.769 | 0.653 | 0.579 | 1.12 | 0.769 | 1.05 | 0.714
16 | UMC-11 |  |  |  |  | 0.78 | 0.996 | 0.99 | 0.251 | 0.342 | 0.628 | 0.88 | 0.663 | 0.392 | 0.119 | 0.668 | 0.373 | 0.678 | 0.827
